Measurements published in patent publication US9802904B2, “Inhibitors of the USP1/UAF1 deubiquitinase complex and uses thereof” (The United States of America, as represented by the …, priority 2012, dated 2017).

system: USP1/UAF1 cellular activity in HEK293T cells; assay: PCNA and FANCD2 monoubiquitination in HEK293T cells (Western blot); type: cell-based, human; conditions: 30 μM compound 81, 6 hr, as compared to control
Description: (§1) HEK293T or H596 cells were plated in 10 cm dishes and synchronized in S-phase with the double-thymidine block method as described previously (Chen et al., Chemistry & Biology, 2011. 18(11): 1390-400). […] Negative control cells were treated with an equal volume of DMSO and saline (0.9% NaCl). After 6 hr at 37° C., cells were harvested and lysed. Cell extracts were separated on SDS-PAGE and transferred to nitrocellulose membrane. The membranes were then blotted with PCNA antibody or FANCD2 antibody, followed by incubation with HRP-conjugated anti-mouse secondary antibody. Images were quantified in FluorChem Q software (Imgen Technologies).

| SMILES | PCNA and FANCD2 monoubiquitination |
| --- | --- |
| Cc1cnc(-c2ccccc2C(C)C)nc1NCc1ccc(-n2ccnn2)cc1 [Compound 81, N-(4-(1H-1,2,3-triazol-1-yl)benzyl)-2-(2-isopropylphenyl)-5-methylpyrimidin-4-amine] | increase in PCNA and FANCD2 monoubiquitination |

system: U2OS cells; assay: Cytotoxicity assay in osteosarcoma U2OS cell line; type: cell-based, human; conditions: Homo sapiens, U2OS; alone; read-out: EC50 of killing U2OS cells
Description: (§2) The H596 [human non-small cell lung cancer (NSCLC)] cell line was cultured in RFMI-1640 medium containing 10% fetal bovine serum (FBS) at 37° C. and 5% CO2. The HEK293T (human embryonic kidney 293T), U2OS (human osteosarcoma), and HCT116 (human colon cancer) cell lines were cultured in Dulbecco's modified Eagle's medium (DMEM) supplemented with 10% FBS at 37° C. and 5% CO2. All culture mediums contain 100 units/mL penicillin and 0.1 mg/mL streptomycin as antibiotics.
(§3) For cytotoxicity assays, 5×10^3 H596 cells were seeded in each well of the 96-well plate and grown for 24 hr in humidified incubator. […] In the combination assay, cisplatin was dissolved in saline solution and compound 81 was dissolved in DMSO. Equal volume of above solutions was added to each well and cells were incubated for 48 hr. Cells treated with equal volume of DMSO and saline were used as control and designated as 100% viability. The cell viability was measured by CCK-8 solution (Dojindo Molecular Technologies, Inc) as previously described (Chen, J., et al.).
Cytotoxicity assays were run as described in Example 6 using the cisplatin-sensitive NSCLC H460 cell line and the osteosarcoma U2OS cell line.

| SMILES | EC50 |
| --- | --- |
| Cc1cnc(-c2ccccc2C(C)C)nc1NCc1ccc(-n2ccnn2)cc1 [Compound 81, N-(4-(1H-1,2,3-triazol-1-yl)benzyl)-2-(2-isopropylphenyl)-5-methylpyrimidin-4-amine] | > 10000 nM |

same assay, conditions: alone; read-out: EC50 of killing U2OS cells

| SMILES | EC50 |
| --- | --- |
| N.N.[Cl][Pt][Cl] [cisplatin, reference compound] | 629 nM |

system: H596 cells; assay: Cytotoxicity assay in H596 cells (CCK-8 cell viability); type: cell-based, human; conditions: Homo sapiens, NCI-H596; alone, 48 hr; read-out: EC50 of killing H596 cells
Description: as §2, §3

| SMILES | EC50 |
| --- | --- |
| Cc1cnc(-c2ccccc2C(C)C)nc1NCc1ccc(-n2ccnn2)cc1 [Compound 81, N-(4-(1H-1,2,3-triazol-1-yl)benzyl)-2-(2-isopropylphenyl)-5-methylpyrimidin-4-amine] | > 10000 nM |

same assay, conditions: alone, 48 hr; read-out: EC50 of killing H596 cells

| SMILES | EC50 |
| --- | --- |
| N.N.[Cl][Pt][Cl] [cisplatin, reference compound] | 486 nM |

target: USP1/UAF1 (Homo sapiens (Human), UniProt O94782); assay: qHTS assay for USP1/UAF1 activity (fluorometric, ubiquitin-rhodamine110); type: biochemical; conditions: USP1/UAF1 inhibition, Table 1 of Example 8
Sequence (O94782 whole entry): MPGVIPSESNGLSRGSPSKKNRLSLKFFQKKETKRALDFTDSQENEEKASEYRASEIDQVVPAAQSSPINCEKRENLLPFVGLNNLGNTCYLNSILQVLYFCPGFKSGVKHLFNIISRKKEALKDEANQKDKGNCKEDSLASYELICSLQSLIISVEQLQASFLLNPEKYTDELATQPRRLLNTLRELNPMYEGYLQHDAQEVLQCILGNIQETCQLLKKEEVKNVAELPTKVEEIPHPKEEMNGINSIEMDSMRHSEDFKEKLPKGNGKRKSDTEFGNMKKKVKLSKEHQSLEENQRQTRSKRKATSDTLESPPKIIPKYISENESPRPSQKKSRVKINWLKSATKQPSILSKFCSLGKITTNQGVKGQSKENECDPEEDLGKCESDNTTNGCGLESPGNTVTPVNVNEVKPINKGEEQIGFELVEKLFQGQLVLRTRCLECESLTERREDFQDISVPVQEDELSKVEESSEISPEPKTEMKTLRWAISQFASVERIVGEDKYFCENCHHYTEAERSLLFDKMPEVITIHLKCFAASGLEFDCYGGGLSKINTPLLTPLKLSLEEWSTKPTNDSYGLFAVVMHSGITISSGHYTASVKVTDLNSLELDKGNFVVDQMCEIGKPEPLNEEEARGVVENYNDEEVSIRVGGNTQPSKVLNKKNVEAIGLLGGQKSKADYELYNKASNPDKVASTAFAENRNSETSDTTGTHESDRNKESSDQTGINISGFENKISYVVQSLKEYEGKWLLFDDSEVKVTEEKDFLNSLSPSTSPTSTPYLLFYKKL
Sequence (Q8TAF3 whole entry partner): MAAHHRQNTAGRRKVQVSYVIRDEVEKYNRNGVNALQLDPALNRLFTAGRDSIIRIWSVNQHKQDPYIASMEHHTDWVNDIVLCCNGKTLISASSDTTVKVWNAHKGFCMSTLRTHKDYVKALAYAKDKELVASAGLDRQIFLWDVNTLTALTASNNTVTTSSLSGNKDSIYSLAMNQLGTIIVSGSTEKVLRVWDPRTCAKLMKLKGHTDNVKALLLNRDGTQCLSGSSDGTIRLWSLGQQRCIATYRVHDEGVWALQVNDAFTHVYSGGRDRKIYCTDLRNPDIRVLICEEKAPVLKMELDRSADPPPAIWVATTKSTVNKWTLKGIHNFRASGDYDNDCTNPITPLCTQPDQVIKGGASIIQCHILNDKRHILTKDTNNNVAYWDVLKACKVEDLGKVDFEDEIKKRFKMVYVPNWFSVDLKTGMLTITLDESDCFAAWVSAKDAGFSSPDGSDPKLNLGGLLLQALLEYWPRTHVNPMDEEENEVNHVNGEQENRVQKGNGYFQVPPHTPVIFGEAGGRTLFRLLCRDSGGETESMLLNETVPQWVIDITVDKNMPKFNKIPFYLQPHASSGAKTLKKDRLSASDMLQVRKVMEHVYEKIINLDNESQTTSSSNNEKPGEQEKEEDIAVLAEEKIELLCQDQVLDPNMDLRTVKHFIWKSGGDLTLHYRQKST
Description: USP1/UAF1 activity was monitored in a fluorometric assay using ubiquitin-rhodamine110. Enzymatic reactions were conducted in an assay buffer (50 mM HEPES, pH 7.8, 0.5 mM EDTA, 100 mM NaCl, 1 mM TCEP, 0.1 mg/mL BSA, and 0.01% Tween-20) that contained 1 nM USP1/UAF1. […] The plates were incubated for 15 min to attain equilibrium, and then the enzymatic reaction was initiated by dispensing 1 μL of Ub-Rho solution (150 nM final concentration). The plates were directly transferred to a ViewLux high-throughput CCD imager (PerkinElmer), where kinetic measurements of rhodamine fluorescence were acquired using a 480 nm excitation/540 nm emission filter set. […] All screening operations were performed on a fully integrated robotic system (Kalypsys Inc., San Diego, Calif.) as described elsewhere. Plates containing DMSO only were included approximately every 50 plates throughout the screen to monitor any systematic trend in the assay signal associated with reagent dispenser variation or decrease in enzyme specific activity. PubChem AID: 651605.

| IC50 | SMILES |
| --- | --- |
| 3000 nM | FC(F)(F)c1ccccc1-c1ncc2c(NCc3ccc(-c4ccccc4)cc3)cccc2n1 [Compound 6] |
| 5400 nM | FC(F)(F)c1ccccc1-c1ncc2c(NCc3ccc4c(c3)OCO4)cccc2n1 [Compound 7] |
| 2400 nM | Fc1ccc(CNc2cccc3nc(-c4ccccc4C(F)(F)F)ncc23)cc1 [Compound 9] |
| 5400 nM | FC(F)(F)c1ccc(CNc2cccc3nc(-c4ccccc4C(F)(F)F)ncc23)cc1 [Compound 11] |
| 11000 nM | FC(F)(F)c1ccccc1-c1ncc2c(NCc3ccc(Cl)c(Cl)c3)cccc2n1 [Compound 12] |
| 3400 nM | N#Cc1ccc(CNc2cccc3nc(-c4ccccc4C(F)(F)F)ncc23)cc1 [Compound 14] |
| 7600 nM | FC(F)(F)c1ccccc1-c1ncc2c(NCC#Cc3cccnc3)cccc2n1 [Compound 15] |
| 1400 nM | FC(F)(F)c1ccccc1-c1ncc2c(NCc3ccc(-c4ccc(Cl)c(Cl)c4)cc3)cccc2n1 [Compound 16] |
| 480 nM | FC(F)(F)c1ccccc1-c1ncc2c(NCc3ccc(-c4ccncc4)cc3)cccc2n1 [Compound 19] |
| 2200 nM | FC(F)(F)c1cc(-c2ccc(CNc3cccc4nc(-c5ccccc5C(F)(F)F)ncc34)cc2)ccc1Cl [Compound 22] |
| 7600 nM | FC(F)(F)c1ccccc1-c1ncc2c(NCc3ccc(N4CCOCC4)cc3)cccc2n1 [Compound 23] |
| 4300 nM | FC(F)(F)c1cc(-c2ccc(CNc3cccc4nc(-c5ccccc5C(F)(F)F)ncc34)cc2)ccn1 [Compound 24] |
| 5800 nM | FC(F)(F)c1ccccc1-c1ncc2c(NCc3ccc(C4CCCCC4)cc3)cccc2n1 [Compound 25] |

| SMILES | IC50 |
| --- | --- |
| FC(F)(F)c1ccccc1-c1ncc2c(NCc3cccs3)cccc2n1 [Compound 1] | 7900 nM |
| FC(F)(F)c1ccccc1-c1ncc2c(NCc3ccccc3)cccc2n1 [Compound 5] | 2400 nM |
| COc1ccc(CNc2cccc3nc(-c4ccccc4C(F)(F)F)ncc23)cc1 [Compound 8] | 3000 nM |
| FC(F)(F)c1ccccc1-c1ncc2c(NCc3ccc(Cl)cc3)cccc2n1 [Compound 10] | 3000 nM |
| Cc1ccc(CNc2cccc3nc(-c4ccccc4C(F)(F)F)ncc23)s1 [Compound 13] | 4300 nM |
| FC(F)(F)c1ccccc1-c1ncc2c(NCc3ccc(-c4ccc(Cl)cc4)cc3)cccc2n1 [Compound 17] | 2200 nM |
| FC(F)(F)c1ccccc1-c1ncc2c(NCc3ccc(-c4cccc(Cl)c4)cc3)cccc2n1 [Compound 18] | 1700 nM |
| FC(F)(F)c1ccccc1-c1ncc2c(NCc3ccc(-c4cccnc4)cc3)cccc2n1 [Compound 20] | 610 nM |
| FC(F)(F)c1ccccc1-c1ncc2c(NCc3ccc(-c4cccnc4)cc3)cccc2n1 [Compound 21] | 1900 nM |

same assay, conditions: USP1/UAF1 inhibition, Table 3

| IC50 | SMILES |
| --- | --- |
| 120 nM | CC(C)c1ccccc1-c1nc(NCc2ccc(-c3ccccc3)cc2)c2sccc2n1 [Compound 50] |
| 240 nM | CC(C)c1ccccc1-c1nc(NCc2ccc(-c3ccccc3)cc2)c2ccsc2n1 [Compound 51] |
| 2120 nM | CC(C)c1ccccc1-c1nc(NCc2ccc(-c3ccccc3)cc2)c2nc[nH]c2n1 [Compound 52] |
| 1500 nM | CC(C)c1ccccc1-c1nc2c(c(NCc3ccc(-c4ccccc4)cc3)n1)CCC2 [Compound 53] |
| 220 nM | CC(C)c1ccccc1-c1nc(NCc2ccc(-c3ccccc3)cc2)c2cccn2n1 [Compound 54] |
| 480 nM | CC(C)c1ccccc1C1=NC2CNCCC2C(NCc2ccc(-c3ccccc3)cc2)=N1 (stereo not drawn) [Compound 55] |
| 140 nM | CC(C)c1ccccc1C1=NC2CCCC2C(NCc2ccc(-c3ccccc3)cc2)=N1 (stereo not drawn) [Compound 56] |
| 150 nM | CC(C)c1ccccc1C1=NC2C=COC2C(NCc2ccc(-c3ccccc3)cc2)=N1 (stereo not drawn) [Compound 57] |
| 120 nM | CC(C)c1ccccc1C1=NCCC(NCc2ccc(-c3ccccc3)cc2)=N1 [Compound 58] |
| 43 nM | CCc1cnc(-c2ccccc2C(C)C)nc1NCc1ccc(-c2ccccc2)cc1 [Compound 60] |
| 61 nM | CC(C)c1ccccc1-c1ncc(F)c(NCc2ccc(-c3ccccc3)cc2)n1 [Compound 61] |
| 270 nM | CC(C)c1ccccc1-c1ncc(N)c(NCc2ccc(-c3ccccc3)cc2)n1 [Compound 62] |
| 150 nM | CC(C)c1ccccc1-c1ncc(N(C)C)c(NCc2ccc(-c3ccccc3)cc2)n1 [Compound 63] |
| 86 nM | CSc1cnc(-c2ccccc2C(C)C)nc1NCc1ccc(-c2ccccc2)cc1 [Compound 64] |
| 480 nM | Cc1cc(NCc2ccc(-c3ccccc3)cc2)nc(-c2ccccc2C(C)C)n1 [Compound 65] |
| 140 nM | Cc1nc(-c2ccccc2C(C)C)nc(NCc2ccc(-c3ccccc3)cc2)c1C [Compound 66] |

same assay, conditions: USP1/UAF1 inhibition, Table 4

| IC50 | SMILES |
| --- | --- |
| 1100 nM | Cc1cccc(C(CO)Nc2nc(-c3ccccc3C(C)C)ncc2C)c1 (stereo not drawn) [Compound 70] |
| 30000 nM | Cc1cnc(-c2ccccc2C(C)C)nc1NCC1CCN(C)CC1 [Compound 71] |
| 43 nM | Cc1ccc(-c2ccc(CNc3nc(-c4ccccc4C(C)C)ncc3C)cc2)cn1 [Compound 72] |
| 380 nM | Cc1cnc(-c2ccccc2C(C)C)nc1NCc1ccc(-c2ccnc(C(F)(F)F)c2)cc1 [Compound 73] |
| 48 nM | Cc1cnc(-c2ccccc2C(C)C)nc1NCC1CCN(c2cccnc2)CC1 [Compound 74] |
| 2200 nM | Cc1ccc(N2CCC(CNc3nc(-c4ccccc4C(C)C)ncc3C)CC2)cn1 [Compound 75] |
| 120 nM | Cc1cnc(-c2ccccc2C(C)C)nc1NCC1CCN(c2cnccn2)CC1 [Compound 76] |
| 6800 nM | Cc1cnc(-c2ccccc2C(C)C)nc1NCC1CC(c2cccnc2)C1 (stereo not drawn) [Compound 77] |
| 480 nM | Cc1cnc(-c2ccccc2C(C)C)nc1NCC1CCN(c2cccnc2)C1 (stereo not drawn) [Compound 78] |
| 61 nM | Cc1cnc(-c2ccccc2C(C)C)nc1NCc1ccc(-c2ccc(F)nc2)cc1 [Compound 79] |
| 7600 nM | Cc1cnc(-c2ccccc2C(C)C)nc1NCc1ccc(C2CCCNC2)cc1 (stereo not drawn) [Compound 80] |
| 240 nM | Cc1cnc(-c2ccccc2C(C)C)nc1NCc1ccc(-c2cnn[nH]2)cc1 [Compound 82] |
| 7600 nM | Cc1cnc(-c2ccccc2C(C)C)nc1NCc1ccc(-c2nnn[nH]2)cc1 [Compound 83] |
| 6800 nM | Cc1cnc(-c2ccccc2C(C)C)nc1NCc1ccc(C(N)=O)cc1 [Compound 84] |
| 15000 nM | Cc1cnc(-c2ccccc2C(C)C)nc1NCC1CCN(C2COC2)CC1 [Compound 85] |
| 61 nM | Cc1cnc(-c2ccccc2C(C)C)nc1NCc1ccc(-c2cccnc2)cc1 [Compound 86] |
| 150 nM | Cc1cnc(-c2ccccc2C(C)C)nc1NCc1ccc(-c2cc[nH]n2)cc1 [Compound 88] |
| 34 nM | Cc1cnc(-c2ccccc2C(C)C)nc1NC1(c2ccc(-c3cccnc3)cc2)CC1 [Compound 89] |
| 190 nM | Cc1cnc(-c2ccccc2C(C)C)nc1NC(C)(C)c1ccc(-c2cccnc2)cc1 [Compound 90] |

| SMILES | IC50 |
| --- | --- |
| Cc1cccc(CNc2nc(-c3ccccc3C(C)C)ncc2C)c1 [Compound 67] | 140 nM |
| Cc1cnc(-c2ccccc2C(C)C)nc1NCc1cccnc1 [Compound 68] | 2200 nM |
| Cc1cnc(-c2ccccc2C(C)C)nc1NCc1cccs1 [Compound 69] | 220 nM |

system: USP1/UAF1 cellular activity in H596 cells; assay: PCNA and FANCD2 monoubiquitination in H596 cells (Western blot); type: cell-based, human; conditions: 30 μM compound 81, 6 hr, as compared to control
Description: as §1

| SMILES | PCNA and FANCD2 monoubiquitination |
| --- | --- |
| Cc1cnc(-c2ccccc2C(C)C)nc1NCc1ccc(-n2ccnn2)cc1 [Compound 81, N-(4-(1H-1,2,3-triazol-1-yl)benzyl)-2-(2-isopropylphenyl)-5-methylpyrimidin-4-amine] | increase in PCNA and FANCD2 monoubiquitination |
